Laboratory results from article PMC8319832, “Fine-Tuning of Alkaline Residues on the Hydrophilic Face Provides a Non-toxic Cationic α-Helical Antimicrobial Peptide Against Antibiotic-Resistant ESKAPE Pathogens” (Frontiers in Microbiology, 2021).
Converted amounts (≈) assume the structure as drawn. Where a SMILES comes first, the peptide text is derived from it.

Experiments:
E. coli ATCC25922 = experiment: MIC, broth dilution; type: cell-based, Escherichia coli; details: CLSI broth dilution, MHB, 6.25 × 10^5 cfu per ml, 37°C, 20 h, OD630, at least three repeats
[1] = system: human red blood cells (hRBCs); experiment: Hemolytic activity determination; type: cell-based; details: hRBCs in 0.9% sodium chloride, 37°C, 1 h, OD540, 1% Triton X-100 = 100%, three independent experiments
Method: Fresh human red blood cells (hRBCs) were collected in a sterile borosilicate glass tube covered with sodium citrate as the anticoagulating agent. […] Two-fold dilutions of the peptides were prepared in 0.9% sodium chloride to 100 μl and mixed with equal volumn of hRBC suspension to final peptide concentrations ranging from 12.5 to 200 μg ml^–1. After co-incubation at 37°C for 1 h, the samples were centrifuged (2,000 × g, 4°C, 20 min), and the supernatant (100 μl) was taken for optical density (OD540) measurements (Asample). The hRBCs assayed with 0.9% sodium chloride (Ablank) or 1% Triton X-100 (Apositive) were applied as 0% and 100% hemolysis, respectively. Three independent experiments were performed and the percent hemolysis was calculated according to the following equation ([Yin et al., 2012]; [Li et al., 2016]):
Hemolysis(%)=100*(Asample-Ablank)/(Apositive-Ablank)

S. aureus ATCC29213 = experiment: MIC, broth dilution; type: cell-based, Staphylococcus aureus; details: CLSI broth dilution, MHB, 6.25 × 10^5 cfu per ml, 37°C, 20 h, OD630, at least three repeats
Method: All experiments were repeated at least three times.
To study the influence of physiological ions on the antimicrobial activities of the peptides, The MICs of the peptides were also determined against the standard bacterial strains cultured in MHB containing various salts at their physiological concentrations (150 mM NaCl, 4.5 mM KCl, 1 mM MgCl2, 2 mM CaCl2, 6 μM NH4HCO3, and 4 μM FeCl3) ([Ma et al., 2016]).

Row | SMILES | MIC (E. coli ATCC25922) [µg/mL] | percent hRBC hemolysis ([1]; peptide 25 μg ml^–1) [%] | MIC (S. aureus ATCC29213) [µg/mL] | percent hRBC hemolysis ([1]; peptide 100 μg ml^–1) [%]
1 | CC[C@H](C)[C@H](NC(=O)[C@H](CCCNC(=N)N)NC(=O)CNC(=O)[C@@H](NC(=O)[C@@H](N)Cc1ccccc1)[C@@H](C)CC)C(=O)N[C@@H](C)C(=O)N[C@@H](CCCNC(=N)N)C(=O)N[C@@H](CC(C)C)C(=O)N[C@@H](CC(C)C)C(=O)N[C@@H](CO)C(=O)N[C@@H](CCCCN)C(=O)N[C@H](C(=O)N[C@@H](Cc1ccccc1)C(N)=O)[C@@H](C)CC [Kn2(A4R)] (H-FIGRIARLLSKIF-NH2) | 10 (≈ 6.52 µM) | 100 | 5 (≈ 3.26 µM) | 
2 | CC[C@H](C)[C@H](NC(=O)[C@H](CCCNC(=N)N)NC(=O)CNC(=O)[C@@H](NC(=O)[C@@H](N)Cc1ccccc1)[C@@H](C)CC)C(=O)N[C@@H](C)C(=O)N[C@@H](CCCNC(=N)N)C(=O)N[C@@H](CC(C)C)C(=O)N[C@@H](CC(C)C)C(=O)N[C@@H](CCCNC(=N)N)C(=O)N[C@@H](CCCCN)C(=O)N[C@H](C(=O)N[C@@H](Cc1ccccc1)C(N)=O)[C@@H](C)CC [Kn2(A4R_S10R)] (H-FIGRIARLLRKIF-NH2) | 20 (≈ 12.5 µM) | 18.0 | 10 (≈ 6.24 µM) | 
3 | CC[C@H](C)[C@H](NC(=O)[C@H](C)NC(=O)[C@H](CCCCN)NC(=O)[C@@H](NC(=O)[C@@H](N)Cc1ccccc1)[C@@H](C)CC)C(=O)N[C@@H](C)C(=O)N[C@@H](CCCNC(=N)N)C(=O)N[C@@H](CC(C)C)C(=O)N[C@@H](CC(C)C)C(=O)N[C@@H](CO)C(=O)N[C@@H](CCCCN)C(=O)N[C@H](C(=O)N[C@@H](Cc1ccccc1)C(N)=O)[C@@H](C)CC [Kn2(G3K)] (H-FIKAIARLLSKIF-NH2) | 40 (≈ 26.3 µM) | 69.0 | 5 (≈ 3.29 µM) | 
4 | CC[C@H](C)[C@H](NC(=O)[C@H](CCCNC(=N)N)NC(=O)[C@H](CCCCN)NC(=O)[C@@H](NC(=O)[C@@H](N)Cc1ccccc1)[C@@H](C)CC)C(=O)N[C@@H](C)C(=O)N[C@@H](CCCNC(=N)N)C(=O)N[C@@H](CC(C)C)C(=O)N[C@@H](CC(C)C)C(=O)N[C@@H](CO)C(=O)N[C@@H](CCCCN)C(=O)N[C@H](C(=O)N[C@@H](Cc1ccccc1)C(N)=O)[C@@H](C)CC [Kn2(G3K_A4R)] (H-FIKRIARLLSKIF-NH2) | 10 (≈ 6.23 µM) | 8.3 | 5 (≈ 3.12 µM) | 
5 | CC[C@H](C)[C@H](NC(=O)[C@H](C)NC(=O)[C@H](CCCCN)NC(=O)[C@@H](NC(=O)[C@@H](N)Cc1ccccc1)[C@@H](C)CC)C(=O)N[C@@H](C)C(=O)N[C@@H](CCCNC(=N)N)C(=O)N[C@@H](CC(C)C)C(=O)N[C@@H](CC(C)C)C(=O)N[C@@H](CCCNC(=N)N)C(=O)N[C@@H](CCCCN)C(=O)N[C@H](C(=O)N[C@@H](Cc1ccccc1)C(N)=O)[C@@H](C)CC [Kn2(G3K_S10R)] (H-FIKAIARLLRKIF-NH2) | 20 (≈ 12.6 µM) | 77.5 | 10 (≈ 6.3 µM) | 
6 | CC[C@H](C)[C@H](NC(=O)[C@H](C)NC(=O)CNC(=O)[C@@H](NC(=O)[C@@H](N)Cc1ccccc1)[C@@H](C)CC)C(=O)N[C@@H](C)C(=O)N[C@@H](CCCNC(=N)N)C(=O)N[C@@H](CC(C)C)C(=O)N[C@@H](CC(C)C)C(=O)N[C@@H](CCCNC(=N)N)C(=O)N[C@@H](CCCCN)C(=O)N[C@H](C(=O)N[C@@H](Cc1ccccc1)C(N)=O)[C@@H](C)CC [Kn2(S10R)] (H-FIGAIARLLRKIF-NH2) | 20 (≈ 13.2 µM) | 50.9 | 10 (≈ 6.59 µM) | 
7 | CC[C@H](C)[C@H](NC(=O)[C@H](CCCNC(=N)N)NC(=O)[C@H](CCCNC(=N)N)NC(=O)[C@@H](NC(=O)[C@@H](N)Cc1ccccc1)[C@@H](C)CC)C(=O)N[C@@H](C)C(=O)N[C@@H](CCCNC(=N)N)C(=O)N[C@@H](CC(C)C)C(=O)N[C@@H](CC(C)C)C(=O)N[C@@H](CCCNC(=N)N)C(=O)N[C@@H](CCCCN)C(=O)N[C@H](C(=O)N[C@@H](Cc1ccccc1)C(N)=O)[C@@H](C)CC [Kn2-7(K3R)] (H-FIRRIARLLRKIF-NH2) | 20 (≈ 11.8 µM) |  | 5 (≈ 2.94 µM) | 89.3
8 | CC[C@H](C)[C@H](NC(=O)[C@H](CCCNC(=N)N)NC(=O)[C@H](CCCCN)NC(=O)[C@@H](NC(=O)[C@@H](N)Cc1ccccc1)[C@@H](C)CC)C(=O)N[C@@H](C)C(=O)N[C@@H](CCCNC(=N)N)C(=O)N[C@@H](CC(C)C)C(=O)N[C@@H](CC(C)C)C(=O)N[C@@H](CCCNC(=N)N)C(=O)N[C@@H](CCCNC(=N)N)C(=O)N[C@H](C(=O)N[C@@H](Cc1ccccc1)C(N)=O)[C@@H](C)CC [Kn2-7(K11R)] (H-FIKRIARLLRRIF-NH2) | 10 (≈ 5.88 µM) |  | 5 (≈ 2.94 µM) | 
9 | CC[C@H](C)[C@H](NC(=O)[C@H](CCCCN)NC(=O)[C@H](CCCCN)NC(=O)[C@@H](NC(=O)[C@@H](N)Cc1ccccc1)[C@@H](C)CC)C(=O)N[C@@H](C)C(=O)N[C@@H](CCCNC(=N)N)C(=O)N[C@@H](CC(C)C)C(=O)N[C@@H](CC(C)C)C(=O)N[C@@H](CCCNC(=N)N)C(=O)N[C@@H](CCCCN)C(=O)N[C@H](C(=O)N[C@@H](Cc1ccccc1)C(N)=O)[C@@H](C)CC [Kn2-7(R4K)] (H-FIKKIARLLRKIF-NH2) | 5 (≈ 3.04 µM) |  | 5 (≈ 3.04 µM) | 
10 | CC[C@H](C)[C@H](NC(=O)[C@H](CCCCN)NC(=O)[C@H](CCCCN)NC(=O)[C@@H](NC(=O)[C@@H](N)Cc1ccccc1)[C@@H](C)CC)C(=O)N[C@@H](C)C(=O)N[C@@H](CCCCN)C(=O)N[C@@H](CC(C)C)C(=O)N[C@@H](CC(C)C)C(=O)N[C@@H](CCCNC(=N)N)C(=O)N[C@@H](CCCCN)C(=O)N[C@H](C(=O)N[C@@H](Cc1ccccc1)C(N)=O)[C@@H](C)CC [Kn2-7(R4K_R7K)] (H-FIKKIAKLLRKIF-NH2) | 10 (≈ 6.18 µM) |  | 5 (≈ 3.09 µM) | 
11 | CC[C@H](C)[C@H](NC(=O)[C@H](CCCCN)NC(=O)[C@H](CCCCN)NC(=O)[C@@H](NC(=O)[C@@H](N)Cc1ccccc1)[C@@H](C)CC)C(=O)N[C@@H](C)C(=O)N[C@@H](CCCNC(=N)N)C(=O)N[C@@H](CC(C)C)C(=O)N[C@@H](CC(C)C)C(=O)N[C@@H](CCCCN)C(=O)N[C@@H](CCCCN)C(=O)N[C@H](C(=O)N[C@@H](Cc1ccccc1)C(N)=O)[C@@H](C)CC [Kn2-7(R4K_R10K)] (H-FIKKIARLLKKIF-NH2) | 5 (≈ 3.09 µM) |  | 2.5 (≈ 1.55 µM) | 
12 | CC[C@H](C)[C@H](NC(=O)[C@H](CCCNC(=N)N)NC(=O)[C@H](CCCCN)NC(=O)[C@@H](NC(=O)[C@@H](N)Cc1ccccc1)[C@@H](C)CC)C(=O)N[C@@H](C)C(=O)N[C@@H](CCCCN)C(=O)N[C@@H](CC(C)C)C(=O)N[C@@H](CC(C)C)C(=O)N[C@@H](CCCNC(=N)N)C(=O)N[C@@H](CCCCN)C(=O)N[C@H](C(=O)N[C@@H](Cc1ccccc1)C(N)=O)[C@@H](C)CC [Kn2-7(R7K)] (H-FIKRIAKLLRKIF-NH2) | 20 (≈ 12.2 µM) |  | 5 (≈ 3.04 µM) | 
13 | CC[C@H](C)[C@H](NC(=O)[C@H](CCCNC(=N)N)NC(=O)[C@H](CCCCN)NC(=O)[C@@H](NC(=O)[C@@H](N)Cc1ccccc1)[C@@H](C)CC)C(=O)N[C@@H](C)C(=O)N[C@@H](CCCCN)C(=O)N[C@@H](CC(C)C)C(=O)N[C@@H](CC(C)C)C(=O)N[C@@H](CCCCN)C(=O)N[C@@H](CCCCN)C(=O)N[C@H](C(=O)N[C@@H](Cc1ccccc1)C(N)=O)[C@@H](C)CC [Kn2-7(R7K_R10K)] (H-FIKRIAKLLKKIF-NH2) | 20 (≈ 12.4 µM) |  | 5 (≈ 3.09 µM) | 
14 | CC[C@H](C)[C@H](NC(=O)[C@H](CCCNC(=N)N)NC(=O)[C@H](CCCCN)NC(=O)[C@@H](NC(=O)[C@@H](N)Cc1ccccc1)[C@@H](C)CC)C(=O)N[C@@H](C)C(=O)N[C@@H](CCCNC(=N)N)C(=O)N[C@@H](CC(C)C)C(=O)N[C@@H](CC(C)C)C(=O)N[C@@H](CCCCN)C(=O)N[C@@H](CCCCN)C(=O)N[C@H](C(=O)N[C@@H](Cc1ccccc1)C(N)=O)[C@@H](C)CC [Kn2-7(R10K)] (H-FIKRIARLLKKIF-NH2) | 5 (≈ 3.04 µM) |  | 5 (≈ 3.04 µM) | 
